“And” between values parts separate entries of the source, which are not always exact repeats. Equal values may be shown once. Read-outs that look alike come from different tables or passages of the source.
Experiments:
[1] = Enzymatic hydrolysis (β-glucuronidase/sulfatase) of urine of temephos-treated rats, HPLC-DAD; assay type: in vitro ADME, rat; conditions: 50 °C, 1 h, vs non-hydrolyzed urine
Description: Temephos urinary metabolites were enzymatically deconjugated, according to Cruz-Hurtado et al., with some modifications. Briefly, 200 µL of urine and 2000 IU of β-glucuronidase/sulfatase were added to a 0.5 M sodium acetate buffer at pH 5 to reach a final volume of 1 mL. The mixture was incubated at 50 °C in a water bath for an hour. To determine the optimal concentration of deconjugated temephos metabolites in the enzymatic hydrolysis assay, the concentration of β-glucuronidase/sulfatase was assessed from 250 to 4000 IU/mL. The enzymatic reaction was stopped by adding 10 mL of methylene chloride and cooling at room temperature; the mixture was vortexed for 1 min and then centrifuged at 1600× g for 15 min at room temperature. The organic phase was collected, and another residue extraction was performed using 10 mL of diethyl ether. […] Urinary levels of temephos metabolites were adjusted by creatinine, which was determined using a commercial kit from Randox (CR510, Randox Laboratories Ltd., Crumlin, UK).
Temephos and its metabolites were analyzed by injecting urinary extracts into a liquid chromatograph equipped with a quaternary pump, autosampler, degasser, and UV-Vis Diode-Array detector (Agilent 1200, Agilent Technologies, Palo Alto, CA, USA). […] The concentrations of temephos, TDP, TDP-SO, and BPS were determined using calibration graphs of each compound. […]

[2] = Urinary excretion kinetics of temephos metabolites after a single oral dose of temephos; assay type: in vivo, adult male Wistar rats; conditions: for Tmax / k el / half-life: male, Wistar, rat, po; for Tmax / k el / half-life / parent compound in urine: 300 mg/kg; for parent compound in urine: urine samples with and without enzyme hydrolysis, single oral dose 300 mg/kg
Description: Animals were individually housed in acrylic metabolism cages for the collection of urine for 8:16 h cycles (inside and outside the cage) for their adaptation during 8 d before treatment. Animals were orally administered with a single dose of temephos (300 mg/kg) emulsified with saline solution (0.9% NaCl). Urine was collected at intervals of 0–8, 8–16, 16–24, 24–48, 60–72, 84–96, 108–120, 132–144, 156–168, 228–240, and 324–336 h. Urine samples were collected and immediately centrifuged at 1600× g for 5 min at 4 °C (Eppendorf 5804R, Hamburg, Germany) and stored at −20 °C until processed for analysis.
Temephos urinary metabolites were enzymatically deconjugated, according to Cruz-Hurtado et al., with some modifications. Briefly, 200 µL of urine and 2000 IU of β-glucuronidase/sulfatase were added to a 0.5 M sodium acetate buffer at pH 5 to reach a final volume of 1 mL. The mixture was incubated at 50 °C in a water bath for an hour. To determine the optimal concentration of deconjugated temephos metabolites in the enzymatic hydrolysis assay, the concentration of β-glucuronidase/sulfatase was assessed from 250 to 4000 IU/mL. The enzymatic reaction was stopped by adding 10 mL of methylene chloride and cooling at room temperature; the mixture was vortexed for 1 min and then centrifuged at 1600× g for 15 min at room temperature. The organic phase was collected, and another residue extraction was performed using 10 mL of diethyl ether. Both supernatants were pooled and dried using anhydrous sodium sulfate. The solvent evaporated under a nitrogen current. The extracts were stored at −20 °C until analysis by HPLC-DAD. Extracts were dissolved in 200 µL of acetonitrile immediately before analysis. Urinary levels of temephos metabolites were adjusted by creatinine, which was determined using a commercial kit from Randox (CR510, Randox Laboratories Ltd., Crumlin, UK).
Temephos and its metabolites were analyzed by injecting urinary extracts into a liquid chromatograph equipped with a quaternary pump, autosampler, degasser, and UV-Vis Diode-Array detector (Agilent 1200, Agilent Technologies, Palo Alto, CA, USA). A ZORBAX Eclipse XDB C-18 column (4.6 × 150 mm, 5 µm) was used (Agilent Technologies, Deerfield, IL, USA). The detector wavelength was set at 254 nm, the reference wavelength was 550 nm, and the mobile phase was modified from Verdín-Betancourt et al.; it consisted of methanol (A), acetonitrile (B), and water (C), with initial solvent conditions of 27% A, 8% B, and 65% C at a rate of 1 mL/min at 25 °C. After injecting the sample (with different volumes), a 2.5 min linear gradient change was applied to achieve 23.5% A, 12.5% B, and 64% C, which was maintained for 1 min, followed by a second 2.5 min linear gradient change to 18% A, 18% B, and 64% C. Afterwards, another 4 min linear gradient change was applied to reach 20% A, 30% B, and 50% C. This condition was maintained for 2 min. Then, a fourth gradient change was applied, achieving 70% A, 25% B, and 5% C. In the end, the initial conditions were re-established to 27% A, 8% B, and 65% C. The column was equilibrated for 2 min before the next injection. The identity of temephos and its metabolites were confirmed by their retention time (tret) and UV spectra of standards. The concentrations of temephos, TDP, TDP-SO, and BPS were determined using calibration graphs of each compound. The concentration of the non-identified metabolite (NIM) was estimated using the Tem-dox-SO calibration graph due to their similarity in the UV spectrum and tret.
The urinary elimination constant (KElim-U) to determine the half-life of elimination (t1/2 Elim-U) for TDP, BPS, and NIMs was estimated from the slope of the curves in the Rate of Excretion plots (log-linear Rate of excretion (ΔU/Δt) versus mid-point time). […]

[3] = urine, male adult rats, single oral dose of temephos 300 mg/kg
[4] = urine, urine, male adult rats, single oral dose of temephos 300 mg/kg, read-out: KElim-U 2nd Phase (converted)
[5] = urine, urine, male adult rats, single oral dose of temephos 300 mg/kg, read-out: t1/2 Elim-U 2nd Phase (converted)
[6] = urine, rats, single oral dose of temephos 300 mg/kg

Compound	increase of level in urine extracts after enzyme hydrolysis [1]	Tmax [2, 3]	k el [2, 4]	half-life [2, 5]	half-life ([2]; urine, urine, rats, single oral dose of temephos 300 mg/kg, read-out: t1/2 Elim-U (monophasic decline, one-compartment model) (converted))	AUC0–∞ [2, 3]	Cmax-U [2, 3]	time after which detection in urine was difficult [2, 6]	time detected in urine after dosing [2, 6]	k el ([2]; urine, urine, male adult rats, single oral dose of temephos 300 mg/kg, read-out: KElim-U 1st Phase (converted))	half-life ([2]; urine, urine, male adult rats, single oral dose of temephos 300 mg/kg, read-out: t1/2 Elim-U 1st Phase (converted))	tmax-U [2, 3]	Cmax fold higher than that of BPS [2, 6]	Cmax fold higher than that of NIMs [2, 6]	parent compound in urine [2]	parent compound in urine ([2]; listed as temephos)
O=S(=O)(c1ccc(O)cc1)c1ccc(O)cc1 [BPS, 4,4′-sulfonyldiphenol]	about 2 fold	9 ± 6 h	1.09e-05 s⁻¹	17.7 h	17.7 h	2455 ± 974 nmol-h/mg Creatinine	41 ± 16 nmol/mg Creatinine	48 h	40 h							
Oc1ccc(Sc2ccc(O)cc2)cc1 [TDP, 4,4′-thiodiphenol]	more than 60 fold	9 h	7.08e-07 s⁻¹	272 h		297,540 ± 76,013 nmol-h/mg Creatinine	366 nmol/mg Creatinine and 366 ± 115 nmol/mg Creatinine		up to 320 h	6.93e-06 s⁻¹	27.8 h	10 ± 4 h	8.9 fold	4.2 fold		
COP(=S)(OC)Oc1ccc(Sc2ccc(OP(=S)(OC)OC)cc2)cc1 [Temephos, temephos]															practically undetectable	only traces

Source: article PMC11677692, “Analysis of Thiodiphenol in Rat Urine as a Biomarker of Exposure to Temephos” (Journal of Xenobiotics, 2024)
